# PubChem BioAssay (NCI)
#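 Cultured in 96-well plates, cells were exposed to test compound for 48 hours across five concentrations. Here, GI50 denotes the concentration required for 50% inhibition of growth. TGI: total growth inhibition.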
# Experiments:
# Experiment in all cases: inhibition of tumour cell growth, NCI panel, 48 h
# SK-MEL-28 melanoma = tested on: SK-MEL-28 melanoma
# HOP-92 NSCLC = tested on: HOP-92 NSCLC
# UACC-257 melanoma = tested on: UACC-257 melanoma
# PC-3 prostate = tested on: PC-3 prostate
# MDA-MB-435 = tested on: MDA-MB-435
# SK-MEL-2 melanoma = tested on: SK-MEL-2 melanoma
# HCT-15 colon = tested on: HCT-15 colon
# A498 renal = tested on: A498 renal
# SF-268 CNS = tested on: SF-268 CNS
# SF-295 CNS = tested on: SF-295 CNS
# CAKI-1 renal = tested on: CAKI-1 renal
# HS 578T breast = tested on: HS 578T breast
# RXF 393 renal = tested on: RXF 393 renal
# EKVX NSCLC = tested on: EKVX NSCLC
# UO-31 renal = tested on: UO-31 renal
# NCI/ADR-RES ovarian = tested on: NCI/ADR-RES ovarian
# DU-145 prostate = tested on: DU-145 prostate
# HCC-2998 colon = tested on: HCC-2998 colon
# RPMI-8226 leukemia = tested on: RPMI-8226 leukemia
# MOLT-4 leukemia = tested on: MOLT-4 leukemia
# TK-10 renal = tested on: TK-10 renal
# OVCAR-3 ovarian = tested on: OVCAR-3 ovarian
# UACC-62 melanoma = tested on: UACC-62 melanoma
# HL-60(TB) leukemia = tested on: HL-60(TB) leukemia
# SF-539 CNS = tested on: SF-539 CNS
# HOP-62 NSCLC = tested on: HOP-62 NSCLC
# SR leukemia = tested on: SR leukemia
# IGROV1 ovarian = tested on: IGROV1 ovarian
# 786-0 renal = tested on: 786-0 renal
# LOX IMVI melanoma = tested on: LOX IMVI melanoma
# OVCAR-8 ovarian = tested on: OVCAR-8 ovarian
# NCI-H23 lung = tested on: NCI-H23 lung
# BT-549 breast = tested on: BT-549 breast
# OVCAR-4 ovarian = tested on: OVCAR-4 ovarian
# NCI-H522 lung = tested on: NCI-H522 lung
# COLO 205 colon = tested on: COLO 205 colon
# ACHN renal = tested on: ACHN renal
# M14 melanoma = tested on: M14 melanoma
# SK-OV-3 ovarian = tested on: SK-OV-3 ovarian
# K-562 leukemia = tested on: K-562 leukemia
# SNB-75 CNS = tested on: SNB-75 CNS
# CCRF-CEM leukemia = tested on: CCRF-CEM leukemia
# MCF7 breast = tested on: MCF7 breast
# NCI-H226 lung = tested on: NCI-H226 lung
# A549 NSCLC = tested on: A549 NSCLC
# MALME-3M melanoma = tested on: MALME-3M melanoma
# OVCAR-5 ovarian = tested on: OVCAR-5 ovarian
# HT29 colon = tested on: HT29 colon
# HCT-116 colon = tested on: HCT-116 colon
# KM12 colon = tested on: KM12 colon
# NCI-H460 lung = tested on: NCI-H460 lung
# SN12C renal = tested on: SN12C renal
# MDA-MB-231 breast = tested on: MDA-MB-231 breast
# SW-620 colon = tested on: SW-620 colon
# SNB-19 CNS = tested on: SNB-19 CNS
# U251 CNS = tested on: U251 CNS
# SK-MEL-5 melanoma = tested on: SK-MEL-5 melanoma
compound,measurement,setting,value
O=C(C[n+]1ccn(CC(OCc2ccc(Cl)cc2Cl)c2ccc(Cl)cc2Cl)c1)c1ccc(F)cc1 (stereo not drawn),GI50,SK-MEL-28 melanoma,1.7 µM
same,TGI,SK-MEL-28 melanoma,3.12 µM
same,GI50,HOP-92 NSCLC,1.27 µM
same,TGI,HOP-92 NSCLC,2.84 µM
same,GI50,UACC-257 melanoma,1.43 µM
same,TGI,UACC-257 melanoma,2.8 µM
same,GI50,PC-3 prostate,1.55 µM
same,TGI,PC-3 prostate,2.91 µM
same,GI50,MDA-MB-435,1.31 µM
same,TGI,MDA-MB-435,2.72 µM
same,GI50,SK-MEL-2 melanoma,1.65 µM
same,TGI,SK-MEL-2 melanoma,3.11 µM
same,GI50,HCT-15 colon,4.65 µM
same,TGI,HCT-15 colon,67.6 µM
same,GI50,A498 renal,1.42 µM
same,TGI,A498 renal,3.36 µM
same,GI50,SF-268 CNS,1.44 µM
same,TGI,SF-268 CNS,3.09 µM
same,GI50,SF-295 CNS,1.63 µM
same,TGI,SF-295 CNS,3.19 µM
same,GI50,CAKI-1 renal,2.05 µM
same,TGI,CAKI-1 renal,18.3 µM
same,GI50,HS 578T breast,1.6 µM
same,TGI,HS 578T breast,3.72 µM
same,GI50,RXF 393 renal,1.81 µM
same,TGI,RXF 393 renal,3.31 µM
same,GI50,EKVX NSCLC,1.11 µM
same,TGI,EKVX NSCLC,2.4 µM
same,GI50,UO-31 renal,2.43 µM
same,TGI,UO-31 renal,17 µM
same,GI50,NCI/ADR-RES ovarian,16.5 µM
same,TGI,NCI/ADR-RES ovarian,57.5 µM
same,GI50,DU-145 prostate,1.66 µM
same,TGI,DU-145 prostate,3.09 µM
NC1=C(/C(N)=N/O)C(c2ccccc2)c2ccc3ccccc3c2O1 (stereo not drawn),GI50,HCC-2998 colon,0.729 µM
same,TGI,HCC-2998 colon,15.8 µM
same,GI50,SK-MEL-28 melanoma,11.3 µM
same,TGI,SK-MEL-28 melanoma,51 µM
same,GI50,HOP-92 NSCLC,0.579 µM
same,TGI,HOP-92 NSCLC,> 73.1 µM
same,GI50,RPMI-8226 leukemia,0.38 µM
same,TGI,RPMI-8226 leukemia,28.9 µM
same,GI50,MOLT-4 leukemia,0.496 µM
same,TGI,MOLT-4 leukemia,> 100 µM
same,GI50,TK-10 renal,20.2 µM
same,TGI,TK-10 renal,> 100 µM
same,GI50,UACC-257 melanoma,25.1 µM
same,TGI,UACC-257 melanoma,> 100 µM
same,GI50,OVCAR-3 ovarian,0.225 µM
same,TGI,OVCAR-3 ovarian,0.675 µM
same,GI50,UACC-62 melanoma,0.112 µM
same,TGI,UACC-62 melanoma,15.2 µM
same,GI50,HL-60(TB) leukemia,0.275 µM
same,TGI,HL-60(TB) leukemia,0.788 µM
same,GI50,SF-539 CNS,0.242 µM
same,TGI,SF-539 CNS,0.885 µM
same,GI50,HOP-62 NSCLC,0.524 µM
same,TGI,HOP-62 NSCLC,> 100 µM
same,GI50,SR leukemia,0.239 µM
same,TGI,SR leukemia,> 100 µM
same,GI50,IGROV1 ovarian,0.459 µM
same,TGI,IGROV1 ovarian,> 64.3 µM
same,GI50,PC-3 prostate,0.291 µM
same,TGI,PC-3 prostate,> 100 µM
same,GI50,SK-MEL-2 melanoma,19.9 µM
same,TGI,SK-MEL-2 melanoma,> 100 µM
same,GI50,786-0 renal,0.513 µM
same,TGI,786-0 renal,> 58 µM
same,GI50,HCT-15 colon,0.226 µM
same,TGI,HCT-15 colon,20.1 µM
same,GI50,LOX IMVI melanoma,0.621 µM
same,TGI,LOX IMVI melanoma,17.2 µM
same,GI50,A498 renal,0.168 µM
same,TGI,A498 renal,0.72 µM
same,GI50,OVCAR-8 ovarian,0.725 µM
same,TGI,OVCAR-8 ovarian,> 92.9 µM
same,GI50,NCI-H23 lung,0.479 µM
same,TGI,NCI-H23 lung,> 100 µM
same,GI50,BT-549 breast,1.11 µM
same,TGI,BT-549 breast,69.6 µM
same,GI50,OVCAR-4 ovarian,0.831 µM
same,TGI,OVCAR-4 ovarian,> 100 µM
same,GI50,SF-268 CNS,1.09 µM
same,TGI,SF-268 CNS,> 72.6 µM
same,GI50,NCI-H522 lung,0.145 µM
same,TGI,NCI-H522 lung,26.7 µM
same,GI50,COLO 205 colon,0.456 µM
same,TGI,COLO 205 colon,7.26 µM
same,GI50,ACHN renal,0.458 µM
same,TGI,ACHN renal,51.1 µM
same,GI50,M14 melanoma,0.208 µM
same,TGI,M14 melanoma,21.1 µM
same,GI50,SK-OV-3 ovarian,0.616 µM
same,TGI,SK-OV-3 ovarian,> 100 µM
same,GI50,SF-295 CNS,0.321 µM
same,TGI,SF-295 CNS,7.06 µM
same,GI50,K-562 leukemia,0.145 µM
same,TGI,K-562 leukemia,> 100 µM
same,GI50,SNB-75 CNS,0.108 µM
same,GI50,CAKI-1 renal,0.192 µM
same,TGI,CAKI-1 renal,42.3 µM
same,GI50,CCRF-CEM leukemia,0.388 µM
same,TGI,CCRF-CEM leukemia,> 62.8 µM
same,GI50,HS 578T breast,0.276 µM
same,TGI,HS 578T breast,> 77.6 µM
same,GI50,MCF7 breast,0.261 µM
same,TGI,MCF7 breast,97.4 µM
same,GI50,NCI-H226 lung,8.01 µM
same,TGI,NCI-H226 lung,77.1 µM
same,GI50,A549 NSCLC,0.617 µM
same,TGI,A549 NSCLC,> 100 µM
same,GI50,MALME-3M melanoma,2.29 µM
same,TGI,MALME-3M melanoma,> 76.1 µM
same,GI50,RXF 393 renal,0.249 µM
same,TGI,RXF 393 renal,0.929 µM
same,GI50,OVCAR-5 ovarian,1.19 µM
same,TGI,OVCAR-5 ovarian,> 100 µM
same,GI50,EKVX NSCLC,1.01 µM
same,TGI,EKVX NSCLC,> 100 µM
same,GI50,HT29 colon,1.16 µM
same,TGI,HT29 colon,> 100 µM
same,GI50,UO-31 renal,0.348 µM
same,TGI,UO-31 renal,> 84.3 µM
same,GI50,HCT-116 colon,0.444 µM
same,TGI,HCT-116 colon,30.7 µM
same,GI50,KM12 colon,0.302 µM
same,TGI,KM12 colon,36.4 µM
same,GI50,NCI-H460 lung,0.341 µM
same,TGI,NCI-H460 lung,16.1 µM
same,GI50,SN12C renal,0.603 µM
same,TGI,SN12C renal,31 µM
same,GI50,MDA-MB-231 breast,0.988 µM
same,TGI,MDA-MB-231 breast,24.5 µM
same,GI50,NCI/ADR-RES ovarian,0.0578 µM
same,TGI,NCI/ADR-RES ovarian,1.65 µM
same,GI50,SW-620 colon,0.243 µM
same,TGI,SW-620 colon,> 100 µM
same,GI50,SNB-19 CNS,0.471 µM
same,TGI,SNB-19 CNS,> 100 µM
same,GI50,U251 CNS,0.41 µM
same,TGI,U251 CNS,19.8 µM
same,GI50,SK-MEL-5 melanoma,0.369 µM
same,TGI,SK-MEL-5 melanoma,9.79 µM
same,GI50,DU-145 prostate,0.463 µM
same,TGI,DU-145 prostate,> 37.2 µM
Nc1ccccc1-n1c2c(c3ccccc3c1=O)C(=O)c1ccccc1-2,TGI,HCC-2998 colon,> 100 µM
same,TGI,SK-MEL-28 melanoma,> 100 µM
same,TGI,HOP-92 NSCLC,53.6 µM
same,TGI,RPMI-8226 leukemia,> 100 µM
same,TGI,MOLT-4 leukemia,> 100 µM
same,TGI,UACC-257 melanoma,> 100 µM
same,TGI,OVCAR-3 ovarian,55.1 µM
same,TGI,UACC-62 melanoma,> 100 µM
same,TGI,HL-60(TB) leukemia,41.6 µM
same,TGI,SF-539 CNS,26.8 µM
same,TGI,HOP-62 NSCLC,22.9 µM
same,TGI,IGROV1 ovarian,> 100 µM
same,TGI,PC-3 prostate,97.4 µM
same,TGI,MDA-MB-435,> 100 µM
same,TGI,SK-MEL-2 melanoma,52.8 µM
same,TGI,786-0 renal,55.6 µM
same,TGI,HCT-15 colon,> 100 µM
same,TGI,LOX IMVI melanoma,> 100 µM
same,TGI,A498 renal,> 100 µM
same,TGI,OVCAR-8 ovarian,45.4 µM
same,TGI,NCI-H23 lung,51.1 µM
same,TGI,BT-549 breast,12.9 µM
same,TGI,OVCAR-4 ovarian,82.7 µM
same,TGI,SF-268 CNS,48.2 µM
same,TGI,NCI-H522 lung,25.6 µM
same,TGI,COLO 205 colon,> 100 µM
same,TGI,ACHN renal,18.3 µM
same,TGI,M14 melanoma,> 100 µM
same,TGI,SK-OV-3 ovarian,21.5 µM
same,TGI,SF-295 CNS,40.1 µM
same,TGI,K-562 leukemia,> 100 µM
same,TGI,SNB-75 CNS,> 100 µM
same,TGI,CAKI-1 renal,50.7 µM
same,TGI,CCRF-CEM leukemia,> 100 µM
same,TGI,MCF7 breast,> 100 µM
same,TGI,NCI-H226 lung,> 100 µM
same,TGI,A549 NSCLC,> 100 µM
same,TGI,MALME-3M melanoma,85.5 µM
same,TGI,OVCAR-5 ovarian,> 100 µM
same,TGI,EKVX NSCLC,> 100 µM
same,TGI,HT29 colon,> 100 µM
same,TGI,UO-31 renal,33.9 µM
same,TGI,HCT-116 colon,> 100 µM
same,TGI,KM12 colon,> 100 µM
same,TGI,NCI-H460 lung,> 100 µM
same,TGI,SN12C renal,> 100 µM
same,TGI,MDA-MB-231 breast,> 100 µM
same,TGI,NCI/ADR-RES ovarian,51.3 µM
same,TGI,SW-620 colon,> 100 µM
same,TGI,SNB-19 CNS,23.8 µM
same,TGI,U251 CNS,60.5 µM
same,TGI,SK-MEL-5 melanoma,> 100 µM
same,TGI,DU-145 prostate,> 100 µM
